Laboratory results from ChEMBL document CHEMBL4825755 (J Med Chem, 2021).
≈ marks a conversion by molar mass, not a printed value. Calls of active or inactive are those of the source. The calls are words filed in the database; no cut-off is given here.

Assays:
[1] = Genotoxicity in Salmonella typhimurium by Ames test; type: toxicity; conditions: salmonella enterica subsp. enterica serovar typhimurium
[2] = AUC in Wistar Han rat at 1 mg/kg, po administered via gavage or 1 mg/kg, iv administered as infusion for 1 hr by RP LC-MS/MS analysis; type: ADME, organism-based; parameters: dose 1 mg/kg; conditions: in vivo
[3] = system: Mus musculus; experiment: Antiinflammatory activity in house dust-mite-induced Balb/c mouse model of inflammation assessed as reduction in BAL IL-5 level at 0.1 to 10 mg/kg administered 7 days prior to HDM re-challenge and measured 4 hrs post-HDM re-challenge; type: functional, organism-based; conditions: dose 0.1-10 mg/kg, time 7.0 day
[4] = Oral bioavailability in Wistar Han rat at 1 mg/kg administered via gavage by RP LC-MS/MS analysis; type: ADME, organism-based; conditions: in vivo
[5] = biological target: PI3-kinase p110-alpha/p85-alpha (Homo sapiens, UniProt P42336); experiment: Inhibition of recombinant human N-terminal His6-tagged full length P110alpha/full length untagged human p85alpha expressed in baculovirus infected Sf21 insect cells using PIP2 as substrate preincubated for 15 mins followed by substrate addition and measured after 60 mins by HTRF assay
Sequence of PI3-kinase p110-alpha/p85-alpha (P27986 whole entry): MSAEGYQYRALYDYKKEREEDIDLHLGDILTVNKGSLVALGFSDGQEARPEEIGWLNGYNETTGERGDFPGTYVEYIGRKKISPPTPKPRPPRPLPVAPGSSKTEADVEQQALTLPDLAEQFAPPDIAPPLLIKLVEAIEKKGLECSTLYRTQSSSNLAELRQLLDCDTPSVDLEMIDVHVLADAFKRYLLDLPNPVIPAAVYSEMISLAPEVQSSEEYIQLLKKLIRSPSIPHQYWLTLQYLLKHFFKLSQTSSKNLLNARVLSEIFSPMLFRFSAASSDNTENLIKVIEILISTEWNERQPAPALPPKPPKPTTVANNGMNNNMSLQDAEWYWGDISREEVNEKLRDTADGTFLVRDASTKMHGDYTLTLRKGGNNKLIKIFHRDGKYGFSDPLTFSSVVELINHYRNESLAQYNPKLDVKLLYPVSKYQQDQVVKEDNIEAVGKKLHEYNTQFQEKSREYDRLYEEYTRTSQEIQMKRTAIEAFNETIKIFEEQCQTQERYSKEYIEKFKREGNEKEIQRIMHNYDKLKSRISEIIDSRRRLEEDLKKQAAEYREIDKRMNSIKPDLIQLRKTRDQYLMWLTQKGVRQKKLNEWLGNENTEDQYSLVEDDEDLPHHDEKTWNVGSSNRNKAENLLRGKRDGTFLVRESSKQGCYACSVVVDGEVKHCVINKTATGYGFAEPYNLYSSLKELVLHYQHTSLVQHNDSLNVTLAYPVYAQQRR
Sequence of PI3-kinase p110-alpha/p85-alpha (P42336 whole entry): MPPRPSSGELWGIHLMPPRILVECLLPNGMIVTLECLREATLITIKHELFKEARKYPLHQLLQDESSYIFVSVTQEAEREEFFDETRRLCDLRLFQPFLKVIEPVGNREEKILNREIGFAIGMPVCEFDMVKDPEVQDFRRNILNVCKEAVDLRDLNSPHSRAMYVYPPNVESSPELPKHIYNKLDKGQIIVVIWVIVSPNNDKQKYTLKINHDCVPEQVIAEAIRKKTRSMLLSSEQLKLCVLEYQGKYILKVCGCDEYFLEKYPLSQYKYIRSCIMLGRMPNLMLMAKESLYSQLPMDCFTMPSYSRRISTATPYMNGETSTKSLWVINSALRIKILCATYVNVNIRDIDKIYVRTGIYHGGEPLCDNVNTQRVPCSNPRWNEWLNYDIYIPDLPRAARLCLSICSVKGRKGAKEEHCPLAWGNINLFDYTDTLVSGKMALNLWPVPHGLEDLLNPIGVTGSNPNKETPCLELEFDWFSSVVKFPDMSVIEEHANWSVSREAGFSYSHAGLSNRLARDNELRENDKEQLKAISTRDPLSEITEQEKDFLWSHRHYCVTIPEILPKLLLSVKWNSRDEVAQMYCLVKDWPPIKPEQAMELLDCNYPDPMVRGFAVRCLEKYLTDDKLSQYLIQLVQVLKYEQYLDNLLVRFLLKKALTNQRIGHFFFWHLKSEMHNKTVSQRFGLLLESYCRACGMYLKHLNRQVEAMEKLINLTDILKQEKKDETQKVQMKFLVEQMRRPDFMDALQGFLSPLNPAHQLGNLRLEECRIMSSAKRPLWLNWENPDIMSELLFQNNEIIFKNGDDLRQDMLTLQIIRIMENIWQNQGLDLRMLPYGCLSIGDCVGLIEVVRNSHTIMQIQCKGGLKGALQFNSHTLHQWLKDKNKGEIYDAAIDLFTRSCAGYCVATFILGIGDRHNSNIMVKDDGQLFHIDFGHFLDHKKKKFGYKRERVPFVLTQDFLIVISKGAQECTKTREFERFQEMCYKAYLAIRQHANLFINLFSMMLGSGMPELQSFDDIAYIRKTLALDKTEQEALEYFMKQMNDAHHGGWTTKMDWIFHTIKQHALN

[6] = biological target: Cytochrome P450 3A4 (Homo sapiens, UniProt P08684); experiment: Time-dependent inhibition of CYP3A4 in human liver microsomes using midazolam as substrate; type: ADME
[7] = Half life in Wistar Han rat at 1 mg/kg, po administered via gavage or 1 mg/kg, iv administered as infusion for 1 hr by RP LC-MS/MS analysis; type: ADME, organism-based; conditions: in vivo
[8] = Lipophilicity, log D of compound by chromatographic method; type: physicochemical
[9] = Clearance in Wistar Han rat at 1 mg/kg, po administered via gavage or 1 mg/kg, iv administered as infusion for 1 hr by RP LC-MS/MS analysis; type: ADME, organism-based; conditions: in vivo
[10] = Solubility in pH 6.5 FaSSIF incubated for 4 hrs using crystalline free base of sample by UV-HPLC method; type: physicochemical
[11] = Permeability of compound in MDCK cells; type: ADME, cell-based, Canis lupus familiaris; conditions: dog, read-out: permeability
[12] = Intrinsic clearance in Wistar Han rat liver microsomes at 0.5 uM measured up to 45 mins in presence of NADPH by LC-MS/MS analysis; type: ADME, Microsome; conditions: read-out: CLH
[13] = Fraction unbound in human blood; type: ADME, tissue-based
[14] = biological target: T1, Phosphatidylinositol 4,5-bisphosphate 3-kinase catalytic subunit delta isoform (Homo sapiens, UniProt O00329); experiment: Inhibition of PI3Kdelta in human whole blood assessed as reduction in cytostim-stimulated IFNgamma production preincubated for 1 hr followed by cytostim stimulation and measured after 20 hrs by electrochemiluminescence assay
T1 sequence (O00329 whole entry): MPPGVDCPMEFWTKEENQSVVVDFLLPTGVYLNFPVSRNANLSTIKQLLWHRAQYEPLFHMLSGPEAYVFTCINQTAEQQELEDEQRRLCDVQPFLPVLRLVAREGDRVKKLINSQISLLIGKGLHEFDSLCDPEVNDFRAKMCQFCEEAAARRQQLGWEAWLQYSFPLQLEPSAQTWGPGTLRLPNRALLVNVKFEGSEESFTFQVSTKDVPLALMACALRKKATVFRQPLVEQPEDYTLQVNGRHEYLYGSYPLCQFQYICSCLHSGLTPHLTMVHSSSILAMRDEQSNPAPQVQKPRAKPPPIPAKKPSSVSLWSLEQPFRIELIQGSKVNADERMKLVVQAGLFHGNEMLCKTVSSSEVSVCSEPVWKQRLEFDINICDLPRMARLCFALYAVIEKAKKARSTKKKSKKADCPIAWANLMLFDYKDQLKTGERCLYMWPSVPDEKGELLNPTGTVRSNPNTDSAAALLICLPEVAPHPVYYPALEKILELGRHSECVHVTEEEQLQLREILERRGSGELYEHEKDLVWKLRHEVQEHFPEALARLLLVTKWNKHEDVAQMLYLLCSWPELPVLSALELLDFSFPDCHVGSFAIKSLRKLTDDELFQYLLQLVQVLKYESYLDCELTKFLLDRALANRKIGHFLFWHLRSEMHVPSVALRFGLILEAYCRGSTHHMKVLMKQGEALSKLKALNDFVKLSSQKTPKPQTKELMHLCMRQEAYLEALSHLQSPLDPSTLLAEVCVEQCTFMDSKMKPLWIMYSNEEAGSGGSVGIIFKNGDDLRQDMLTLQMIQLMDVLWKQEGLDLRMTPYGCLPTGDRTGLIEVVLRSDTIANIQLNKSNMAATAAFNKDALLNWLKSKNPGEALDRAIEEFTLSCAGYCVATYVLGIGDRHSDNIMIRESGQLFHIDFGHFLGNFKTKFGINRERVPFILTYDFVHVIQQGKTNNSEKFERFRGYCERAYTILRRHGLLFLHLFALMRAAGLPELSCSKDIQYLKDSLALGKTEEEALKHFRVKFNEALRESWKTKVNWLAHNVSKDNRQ

[15] = in vitro; conditions: human, pooled liver microsomes
Description: Intrinsic clearance in pooled human liver microsomes at 0.5 uM measured up to 45 mins in presence of NADPH by LC-MS/MS analysis

[16] = biological target: PI3K p110 beta/p85 alpha (Homo sapiens, UniProt P42338); experiment: Inhibition of recombinant human N-terminal His6-tagged full length P110beta/full length untagged human p85alpha expressed in baculovirus infected Sf21 insect cells using PIP2 as substrate preincubated for 15 mins followed by substrate addition and measured after 60 mins by HTRF assay
Sequence of PI3K p110 beta/p85 alpha (P27986 whole entry): as the sequence (P27986 whole entry) above
Sequence of PI3K p110 beta/p85 alpha (P42338 whole entry): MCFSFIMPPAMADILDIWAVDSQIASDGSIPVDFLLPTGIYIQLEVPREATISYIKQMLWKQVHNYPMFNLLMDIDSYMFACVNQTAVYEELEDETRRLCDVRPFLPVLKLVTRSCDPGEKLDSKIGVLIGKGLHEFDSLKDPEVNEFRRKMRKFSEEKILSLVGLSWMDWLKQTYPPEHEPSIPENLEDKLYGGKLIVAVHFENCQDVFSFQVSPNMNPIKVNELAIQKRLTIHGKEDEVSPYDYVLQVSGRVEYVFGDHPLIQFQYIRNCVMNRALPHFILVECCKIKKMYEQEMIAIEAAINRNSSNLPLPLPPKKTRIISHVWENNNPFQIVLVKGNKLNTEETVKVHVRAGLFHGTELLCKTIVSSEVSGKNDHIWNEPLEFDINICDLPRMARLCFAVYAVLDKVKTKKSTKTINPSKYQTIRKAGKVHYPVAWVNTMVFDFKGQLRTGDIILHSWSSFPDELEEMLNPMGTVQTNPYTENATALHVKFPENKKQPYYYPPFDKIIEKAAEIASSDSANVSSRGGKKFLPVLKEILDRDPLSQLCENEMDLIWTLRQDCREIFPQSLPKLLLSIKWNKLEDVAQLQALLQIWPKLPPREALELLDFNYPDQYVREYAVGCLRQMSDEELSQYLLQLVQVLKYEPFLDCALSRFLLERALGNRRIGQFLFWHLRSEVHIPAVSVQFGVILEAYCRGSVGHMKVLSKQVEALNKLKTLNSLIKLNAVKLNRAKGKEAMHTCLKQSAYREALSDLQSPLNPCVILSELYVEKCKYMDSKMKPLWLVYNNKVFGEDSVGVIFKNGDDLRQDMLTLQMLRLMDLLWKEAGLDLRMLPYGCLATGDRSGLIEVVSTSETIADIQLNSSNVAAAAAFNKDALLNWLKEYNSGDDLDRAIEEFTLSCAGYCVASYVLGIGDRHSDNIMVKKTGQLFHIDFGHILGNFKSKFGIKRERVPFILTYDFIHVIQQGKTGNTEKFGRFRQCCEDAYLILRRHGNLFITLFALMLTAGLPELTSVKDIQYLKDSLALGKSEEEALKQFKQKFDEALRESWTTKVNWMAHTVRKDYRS

[17] = Fraction unbound in rat blood; type: ADME, tissue-based
[18] = Volume of distribution at steady state in Wistar Han rat at 1 mg/kg, po administered via gavage or 1 mg/kg, iv administered as infusion for 1 hr by RP LC-MS/MS analysis; type: ADME, organism-based; conditions: in vivo, read-out: Vdss
[19] = biological target: Phosphatidylinositol 4,5-bisphosphate 3-kinase catalytic subunit gamma isoform (Homo sapiens, UniProt P48736); experiment: Inhibition of recombinant human N-terminal His6-tagged full length P120gamma expressed in baculovirus infected Sf21 insect cells using PIP2 as substrate preincubated for 15 mins followed by substrate addition and measured after 60 mins by HTRF assay
Sequence of Phosphatidylinositol 4,5-bisphosphate 3-kinase catalytic subunit gamma isoform (P48736 whole entry, canonical isoform): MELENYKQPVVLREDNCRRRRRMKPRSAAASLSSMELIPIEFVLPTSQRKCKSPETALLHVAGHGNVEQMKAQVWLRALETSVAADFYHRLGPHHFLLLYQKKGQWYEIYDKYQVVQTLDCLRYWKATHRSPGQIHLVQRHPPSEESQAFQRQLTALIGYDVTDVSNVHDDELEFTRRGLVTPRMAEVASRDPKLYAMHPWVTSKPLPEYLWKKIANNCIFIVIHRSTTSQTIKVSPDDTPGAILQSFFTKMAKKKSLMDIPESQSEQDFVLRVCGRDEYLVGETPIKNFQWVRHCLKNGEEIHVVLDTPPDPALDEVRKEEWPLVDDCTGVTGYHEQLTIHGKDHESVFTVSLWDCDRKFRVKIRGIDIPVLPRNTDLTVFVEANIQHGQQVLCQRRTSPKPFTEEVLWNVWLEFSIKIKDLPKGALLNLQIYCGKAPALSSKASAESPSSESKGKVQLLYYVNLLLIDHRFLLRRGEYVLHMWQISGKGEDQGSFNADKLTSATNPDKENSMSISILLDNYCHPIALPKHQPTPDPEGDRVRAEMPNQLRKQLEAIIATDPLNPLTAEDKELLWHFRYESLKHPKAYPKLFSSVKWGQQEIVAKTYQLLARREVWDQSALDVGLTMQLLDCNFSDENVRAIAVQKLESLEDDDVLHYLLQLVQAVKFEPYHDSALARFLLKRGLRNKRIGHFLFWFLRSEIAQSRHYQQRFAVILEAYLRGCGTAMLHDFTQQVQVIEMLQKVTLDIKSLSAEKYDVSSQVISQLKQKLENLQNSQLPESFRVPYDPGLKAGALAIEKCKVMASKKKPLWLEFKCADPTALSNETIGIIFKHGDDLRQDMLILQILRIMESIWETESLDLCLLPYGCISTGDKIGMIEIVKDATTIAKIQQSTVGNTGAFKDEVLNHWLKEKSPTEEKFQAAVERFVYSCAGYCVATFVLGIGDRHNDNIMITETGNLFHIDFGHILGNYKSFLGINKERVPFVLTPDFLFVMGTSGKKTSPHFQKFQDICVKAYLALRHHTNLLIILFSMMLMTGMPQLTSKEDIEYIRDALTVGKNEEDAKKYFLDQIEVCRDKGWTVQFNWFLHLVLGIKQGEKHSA

[20] = biological target: PI3-kinase p110-delta/p85-alpha (Homo sapiens, UniProt O00329); experiment: Inhibition of recombinant human N-terminal His6-tagged full length P110delta/full length untagged human p85alpha expressed in baculovirus infected Sf21 insect cells using PIP2 as substrate preincubated for 15 mins followed by substrate addition and measured after 60 mins by HTRF assay
Sequence of PI3-kinase p110-delta/p85-alpha (P27986 whole entry, one chain of several, the tested form may be a part): as the sequence (P27986 whole entry) above

[21] = Clearance in Wistar Han rat at 1 mg/kg, iv administered as infusion for 1 hr by RP LC-MS/MS analysis; type: ADME, organism-based; conditions: in vivo
[22] = Solubility in pH 6.5 FaSSIF incubated for 4 hrs using amorphous form of sample by UV-HPLC method; type: physicochemical
[23] = biological target: Voltage-gated inwardly rectifying potassium channel KCNH2 (Homo sapiens, UniProt Q12809); experiment: Inhibition of human ERG
[24] = biological target: serum albumin (Homo sapiens, UniProt P02768); experiment: Binding affinity to human serum albumin by HPLC analysis; type: ADME, cell-free; conditions: read-out: PB (converted)
[25] = Volume of distribution at steady state in Wistar Han rat at 1 mg/kg, iv administered as infusion for 1 hr by RP LC-MS/MS analysis; type: ADME, organism-based; conditions: in vivo, read-out: Vdss
[26] = biological target: T1, Phosphatidylinositol 4,5-bisphosphate 3-kinase catalytic subunit delta isoform; experiment: Inhibition of PI3Kdelta in human HL-60 cell extract measured after 2 hrs by kinobeads based chemoproteomic competition binding assay; type: tissue-based
[27] = Half life in Wistar Han rat at 1 mg/kg, iv administered as infusion for 1 hr by RP LC-MS/MS analysis; type: ADME, organism-based; conditions: in vivo
[28] = biological target: Phosphatidylinositol 3-kinase catalytic subunit type 3 (Homo sapiens, UniProt Q8NEB9); experiment: Inhibition of VPS34 in human HL-60 cell extract measured after 2 hrs by kinobeads based chemoproteomic competition binding assay; type: tissue-based
Sequence of Phosphatidylinositol 3-kinase catalytic subunit type 3 (Q8NEB9 whole entry): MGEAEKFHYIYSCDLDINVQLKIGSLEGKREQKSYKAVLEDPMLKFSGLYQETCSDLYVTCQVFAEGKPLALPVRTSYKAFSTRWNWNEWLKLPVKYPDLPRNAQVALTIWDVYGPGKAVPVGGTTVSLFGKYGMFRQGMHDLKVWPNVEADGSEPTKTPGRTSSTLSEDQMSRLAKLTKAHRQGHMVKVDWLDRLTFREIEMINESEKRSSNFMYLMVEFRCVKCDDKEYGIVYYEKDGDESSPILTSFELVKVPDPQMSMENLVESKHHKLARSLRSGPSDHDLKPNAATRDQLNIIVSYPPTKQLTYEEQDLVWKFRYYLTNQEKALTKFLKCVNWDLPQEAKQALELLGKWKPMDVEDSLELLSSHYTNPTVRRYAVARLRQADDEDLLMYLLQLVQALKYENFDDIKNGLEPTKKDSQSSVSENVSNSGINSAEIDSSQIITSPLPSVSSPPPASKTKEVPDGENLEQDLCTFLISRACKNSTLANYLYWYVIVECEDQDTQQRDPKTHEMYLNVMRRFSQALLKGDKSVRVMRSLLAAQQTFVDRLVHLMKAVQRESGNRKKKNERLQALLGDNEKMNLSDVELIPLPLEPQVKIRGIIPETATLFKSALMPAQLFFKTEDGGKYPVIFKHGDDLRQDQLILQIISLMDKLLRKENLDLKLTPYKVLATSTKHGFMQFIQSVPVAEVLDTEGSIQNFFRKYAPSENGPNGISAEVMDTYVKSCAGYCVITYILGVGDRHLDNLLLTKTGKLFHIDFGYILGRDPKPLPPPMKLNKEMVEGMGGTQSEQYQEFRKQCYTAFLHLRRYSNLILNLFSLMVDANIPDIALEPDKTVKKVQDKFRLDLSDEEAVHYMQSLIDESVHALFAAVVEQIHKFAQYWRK

For `COc1ncc(N2CCOCC2)cc1S(=O)(=O)Nc1ccnc(-c2ccc(CN3CCN(C(C)C)CC3)cc2F)c1`, the Activity [1] was “Non-Toxic”, the AUC [2] was 2020 ng·h/mL and the Activity [3] was “Active”. For the same molecule, the bioavailability [4] was 46%, the IC50 [5] was 1000 nM and the TDI [6] was “Not Active”. The half-life [7] was 2.6 h, the chromatographic logD [8] was 1.9 and the clearance [9] was 3.8 mL/min/kg. For the same molecule, the solubility thermodynamic at 4 h [10] was 899 µg/mL (≈ 1540 µM), the Papp [11] was 2.3 ×10⁻⁶ cm/s and the CLint scaled at 0.5 µM [12] was under 0.46 mL/min/kg. The fraction unbound [13] was 0.132, the IC50 [14] was 6.31 nM and the CLint scaled at 0.75 h, 0.5 µM [15] was under 0.4 mL/min/kg. The IC50 [16] was 5010 nM, the fraction unbound [17] was 0.021 and the Vd [18] was 0.5 L/kg. The IC50 [19] was 2000 nM, the IC50 [20] was 0.794 nM and the Ki [20] was 0.0126 nM.

With `COc1ncc(C2=CCOCC2)cc1S(=O)(=O)Nc1cncc(C#CCN2CCN(C(C)C)CC2)c1` the IC50 [5] was 5010 nM, the chromatographic logD [8] was 1.8 and the clearance [21] was 8.6 mL/min/kg. For the same molecule, the CLint scaled at 0.5 µM [12] was 0.54 mL/min/kg, the solubility at 4 h [22] was over 1000 µg/mL and the IC50 [23] was over 50100 nM. The IC50 [14] was 50.1 nM, the CLint scaled at 0.75 h, 0.5 µM [15] was under 0.4 mL/min/kg and the IC50 [16] was 5010 nM. The fraction unbound [24] was 0.17, the Vd [25] was 0.3 L/kg and the IC50 [26] was 1.58 nM. It also gave an IC50 [19] of 25100 nM, a half-life [27] of 1 h and an IC50 [20] of 6.31 nM. It also gave an IC50 [28] of 100 nM.
